Data taken from patent US5654436A, “2-substituted benzimidazole derivatives” (American Home Products Corporation, priority 1995, dated 1997).
Read-outs that look alike come from different tables or passages of the source.

Test system: Porcine Smooth Muscle Cell
Assay: Inhibition of smooth muscle cell proliferation (3H-thymidine, serum or PDGF stimulated)
Format: cell-based
Settings: Sus scrofa, porcine aortic smooth muscle cells, 24-36 hours; for inhibition at 10 µM: read-out: Porcine Smooth Muscle Cell Antiproliferation % Inhibition at x Concentration, Serum
Description: The ability of the compounds of the present invention to inhibit smooth muscle cell proliferation was established using isolated porcine nortic smooth muscle cells in a modification of the procedure of Casteliot et al. J. Biol. Chem 257(19) 11256 (1982), as follows:
Fresh porcine aortas, scrupulously cleansed of fatty tissue, are rinsed in sterile phosphate-buffered saline with 2% antibiotic-antimycotic (100×) liquid ( 10,000 units of penicillin (base), 10,000 μg of streptomycin (base), and 25 μg of amphotericin B/mL utilizing penicillin G (sodium salt), streptomycin sulfate, and amphotericin B as Fungizone® in 0.85% saline, available from Gibco Laboratories, Grand Island Biological Co., Grand Island, N.Y.). The tissue is then digested in 10-15 mL of an enzyme solution containing collagerinse type I, 165 U/mL; elastase type III, 15 U/mL; BSA, 2 mg/mL; and soybean trypsin inhibitor, 0.375 mg/mL, followed by incubation at 37° C. under 5% CO2 atmosphere for 10 to 15 minutes. After this treatment, the outer surface adventitia is removed by peeling with a forceps. The aorta is then longitudinally cut and laid open and the endothelial layer is removed by scraping.
The medial layer of cells is rinsed in the enzyme solution, and placed in a new 100 mm dish with 10 mL of enzyme solution. The medial layer of cells is minced using a fine pair of scissors and digested for 2-3 hours at 37° C. in 30 mL of fresh enzyme solution. After digestion, the medial tissue is homogenized using a sterile Pasteur pipette with a fire polished tip or an Eppendorf pipetter with a 200-1000 gL sterile pipette tip. The suspension is then centrifuged for 10 minutes at 8000 rpm and the pellet is suspended in 4-6 mL of fresh enzyme solution and plated onto 4-6 100 mm flasks with vented caps. The cells are then allowed to grow to confluence and split using 0.25% trypsin. The cells are evaluated for purity and overall quality using antibody to SMC actin.
The cells are assayed in early passage (generally passage 3-7) at sub-confluent conditions. Cultures are grown in 16 mm (24 well) multi-well culture dishes in media 199 supplemented with 10% fetal bovine serum and 2% antibiotic/antimycotic. At subconfluence, the cells are placed in a defined serum free, lymphocyte medium (AIM-V; Gibeo) for 24-48 hours prior to initiating the experimental protocol.
The standard test procedure is initiated by addition of the test compound, ^3 H-thymidine and serum or a specific growth factor to the serum deprived synchronized cells. Growth factor and serum stimulations are optimized for each cell type. The test compounds are added to each well at 50 fold dilution (20 μL/well) and the plates are incubated for 24-36 hours at 37° C. in 5% CO2 atmosphere. Test compounds are dissolved in 50% ethanol and assayed at 1, 10, and 100 μM. As a control, RG 50872 (Bilder, G. A.; et al., Am. J. Cell Physiol., 1991; 260: C721) is routinely assayed under the conditions of each cell preparation at a concentration of 5 μM.
At the completion of the experiment, the plates are placed on ice, washed three times with ice cold PBS and incubated in ice cold 10% trichloroacetic acid (TCA) for 30 minutes to remove acid soluble proteins. Each solution is transferred to a scintillation vial containing 0.4N HCl (500 μL/vial to neutralize NaOH) and each well is rinsed two times with water (500 μL) for a total volume of 2 mL/vial.
Data is quantitated by subjecting the vials to a scintillation counter, in triplicate, for both control and experimental samples. Control (100%) data is obtained from maximally stimulated cells, as the result of growth factor or serum stimulation. Experimental data is obtained from cells maximally stimulated with growth factor or serum and treated with a test compound. (The platelet-derived growth factor used in the assay was human recombinant PDGF-AB purchased from Upstate Biotechnology Inc., Lake Placid, N.Y.). Data is expressed as a percent of control from which IC50 s are determined.

[1] = human recombinant PDGF-AB stimulated, read-out: Porcine Smooth Muscle Cell Antiproliferation IC50, PDGF

Compound	IC50 [1]	inhibition at 10 µM (serum stimulated)	IC50 (serum stimulated, read-out: Porcine Smooth Muscle Cell Antiproliferation IC50, Serum)
Clc1ccc(Cn2c(-c3ccccn3)nc3ccccc32)cc1Cl [Example 1, 1-(3,4-Dichiorobenzyl)-2-pyridin-2-yl-1H-benzoimidazole]	4400 nM	39.8%	–
COC(=O)c1ccc(Cn2c(C(F)(F)F)nc3cc(C)c(C)cc32)cc1 [Example 3, 4-(5,6-Dimethyl-2-trifluoromethyl-benzoimidazol-1-ylmethyl)-benzoic acid methyl ester]	2470 nM	41.3%	–
CCCc1nc2cc([N+](=O)[O-])ccc2n1Cc1ccc(C(=O)OCC)cc1 [Example 4, 4-(5-Nitro-2-propyl-benzoimidazol-1-ylmethyl)-benzoic acid ethyl ester]	760 nM	–	660 nM
COC(=O)c1ccc(Cn2c(-c3ccccn3)nc3ccccc32)cc1 [Example 2, 4-[2-(Pyridin-2-yl)-benzoimidazol-1-ylmethyl]-benzoic acid methyl ester]	1100 nM	38.4%	–
